The nature of series [1]: Moisture absorption during filtration of the salt. It is filed as physicochemical.
A short description of series [2]: Stability of solid state form (polymorphic stability by P-XRD on storage). Format: physicochemical. The note with it: stored 3 months in self-sealing LDPE bag, normal atmospheric conditions, room temperature. Here is the method:
The X-Ray powder diffraction was measured by an X-ray powder Diffractometer equipped with CuKα-radiations (40 kV, 40 mA) in wide-angle X-ray Diffractometer of BRUKER axs, D8 ADVANCE. The sample was analyzed using the following instrument parameters: measuring range 3-45° 2-theta; step width=0.01579°; and measuring time per step=0.11 sec. Fesoterodine mandelate was prepared according to the process exemplified in Example 1 and was packed in a self-sealing low-density polyethylene (LDPE) bag. The material was stored for 3 months under normal atmospheric conditions at room temperature and checked for polymorphic stability.

Where a name gives a salt, the structure may show the parent alone.

Regarding `CC(C)C(=O)Oc1ccc(CO)cc1[C@H](CCN(C(C)C)C(C)C)c1ccccc1` [fumarate salt, fesoterodine fumarate, reference compound], the moisture absorption result in series [1] is “absorbs moisture”.

Regarding `CC(C)C(=O)Oc1ccc(CO)cc1[C@H](CCN(C(C)C)C(C)C)c1ccccc1.O=C(O)C(O)c1ccccc1` [Fesoterodine mandelate, mandelate salt of 2-[(1R)-3-[bis(1-methylethyl)amino]-1-phenylpropyl]-4-hydroxymethylphenyl isobutyrate], the moisture absorption entry in series [1] is “does not absorb moisture”. For the same compound, the “polymorphic stability (maintenance of the original P-XRD pattern)” value in series [2] is given as “retain its polymorphic form”.

For the origin of these results see patent US20110086103A1, “NOVEL MANDELATE SALT OF FESOTERODINE” (ACTAVIS GROUP PTC EHF, priority 2008, published 2011).
